Tests used:
[1] = tested on: HL-60(TB) (Leukemia); assay: NCI-60 screen (SRB, 48 h); assay type: cell-based; conditions: Homo sapiens; for IC (TGI): 48 h
[2] = tested on: LOX IMVI (Melanoma); assay: NCI-60 screen (SRB, 48 h); assay type: cell-based; conditions: Homo sapiens; for GI50: read-out: GI50
[3] = tested on: OVCAR-4 (Ovarian cancer); assay: NCI-60 screen (SRB, 48 h); assay type: cell-based; conditions: Homo sapiens; for IC (TGI): OVCAR-4, 48 h; for GI50: read-out: GI50
[4] = tested on: BT-549 (Breast cancer); assay: NCI-60 screen (SRB, 48 h); assay type: cell-based; conditions: Homo sapiens
[5] = tested on: NSC lung cancer subpanel; assay: NCI-60 screen, subpanel; conditions: Homo sapiens; for IC (TGI): 48 h, read-out: TGI MG_MID; for GI50: read-out: GI50 MG_MID; for CC50: read-out: LC50 MG_MID
[6] = tested on: Colon Cancer subpanel; assay: NCI-60 screen, subpanel; conditions: Homo sapiens; for IC (TGI): 48 h, read-out: TGI MG_MID; for GI50: read-out: GI50 MG_MID; for CC50: read-out: LC50 MG_MID
[7] = tested on: HOP-92 (NSC lung cancer); assay: NCI-60 screen (SRB, 48 h); conditions: Homo sapiens; for GI50: HOP-92; for IC (TGI): HOP-92, 48 h, read-out: TGI
[8] = tested on: NCI-H522 (NSC lung cancer); assay: NCI-60 screen (SRB, 48 h); conditions: Homo sapiens; for GI50: NCI-H522; for IC (TGI): NCI-H522, 48 h, read-out: TGI
[9] = tested on: HCT-116 (Colon cancer); assay: NCI-60 screen (SRB, 48 h); conditions: Homo sapiens; for GI50: HCT-116; for IC (TGI): read-out: TGI; for CC50: HCT-116, read-out: LC50
[10] = tested on: HCT-15 (Colon cancer); assay: NCI-60 screen (SRB, 48 h); conditions: Homo sapiens; for GI50: HCT-15; for IC (TGI): HCT-15, 48 h, read-out: TGI
[11] = tested on: HT29 (Colon cancer); assay: NCI-60 screen (SRB, 48 h); conditions: Homo sapiens; for GI50: HT-29
[12] = tested on: KM12 (Colon cancer); assay: NCI-60 screen (SRB, 48 h); conditions: Homo sapiens; for GI50: KM12; for IC (TGI): KM12, 48 h, read-out: TGI
[13] = tested on: SF-295 (CNS cancer); assay: NCI-60 screen (SRB, 48 h); conditions: Homo sapiens; for GI50: SF-295; for IC (TGI): SF-295, 48 h, read-out: TGI
[14] = tested on: UACC-257 (Melanoma); assay: NCI-60 screen (SRB, 48 h); conditions: Homo sapiens; for GI50: UACC-257; for IC (TGI): UACC-257, 48 h, read-out: TGI
[15] = tested on: IGROV1 (Ovarian cancer); assay: NCI-60 screen (SRB, 48 h); conditions: Homo sapiens; for GI50: IGROV-1; for IC (TGI): IGROV-1, 48 h, read-out: TGI; for CC50: IGROV-1, read-out: LC50
[16] = tested on: NCI/ADR-RES (Ovarian cancer); assay: NCI-60 screen (SRB, 48 h); conditions: Homo sapiens
[17] = tested on: A498 (Renal cancer); assay: NCI-60 screen (SRB, 48 h); conditions: Homo sapiens; for GI50: A498; for IC (TGI): A498, 48 h, read-out: TGI; for CC50: A498, read-out: LC50
[18] = tested on: UO-31 (Renal cancer); assay: NCI-60 screen (SRB, 48 h); conditions: Homo sapiens; for GI50: UO-31
[19] = tested on: DU-145 (Prostate cancer); assay: NCI-60 screen (SRB, 48 h); conditions: Homo sapiens; for GI50: DU-145; for IC (TGI): DU-145, 48 h, read-out: TGI
[20] = tested on: T-47D (Breast cancer); assay: NCI-60 screen (SRB, 48 h); conditions: Homo sapiens, T47D; for IC (TGI): 48 h, read-out: TGI
[21] = tested on: K-562 (Leukemia); assay: NCI-60 screen (SRB, 48 h); conditions: Homo sapiens
[22] = tested on: RXF 393 (Renal cancer); assay: NCI-60 screen (SRB, 48 h); conditions: Homo sapiens
[23] = read-out: LC50 (the source's name)

C[C@H]1[C@H](C)CC[C@]2(C(=O)Nc3ccc4ncccc4c3)CC[C@]3(C)C(=CC[C@@H]4[C@@]5(C)CCCNC(C)(C)[C@@H]5CC[C@]43C)[C@H]12 [Compound 14]
GI50 [1]: 1640 nM
IC (TGI) [1]: 3630 nM
GI50 [2]: 1780 nM
IC (TGI) [3]: 3250 nM
GI50 ([3]; OVCAR-4): 1660 nM
GI50 ([4]; BT-549): 1840 nM
IC (TGI) [5]: 3360 nM
GI50 [5]: 1780 nM
CC50 [5]: 7530 nM
IC (TGI) [6]: 3370 nM
GI50 [6]: 1660 nM
CC50 [6]: 6180 nM
GI50 [7]: 1540 nM
IC (TGI) [7]: 3140 nM
GI50 [8]: 1750 nM
IC (TGI) [8]: 3330 nM
GI50 [9]: 1600 nM
activity at 10 µM ([9]; HCT-116, 48 h, read-out: Growth % of the Most Sensitive Cell Lines): -100%
IC (TGI) ([9]; HCT-116, 48 h): 3110 nM
CC50 [9]: 6050 nM
GI50 [10]: 1590 nM
IC (TGI) [10]: 3150 nM
GI50 [11]: 1590 nM
GI50 [12]: 1890 nM
IC (TGI) [12]: 3630 nM
GI50 [13]: 1650 nM
IC (TGI) [13]: 3170 nM
GI50 [14]: 1870 nM
IC (TGI) [14]: 3540 nM
GI50 [15]: 1700 nM
IC (TGI) [15]: 3370 nM
CC50 [15]: 6690 nM
GI50 [16]: 1910 nM
GI50 [17]: 1560 nM
IC (TGI) [17]: 2960 nM
CC50 [17]: 5600 nM
GI50 [18]: 1500 nM
GI50 [19]: 1760 nM
IC (TGI) [19]: 3280 nM
GI50 [20]: 1670 nM
IC (TGI) [20]: 3640 nM

C=C(C)[C@@H]1CC[C@]2(C)[C@H](CC=C3[C@@H]4[C@@H](C)[C@H](C)CC[C@]4(CO)CC[C@]32C)[C@@]1(C)CCCN [Compound 19]
GI50 [1]: 1030 nM
IC (TGI) [1]: 2270 nM
CC50 [1, 23]: 5000 nM
IC (TGI) ([2]; 48 h): 1570 nM
activity at 10 µM ([2]; 48 h, 1 dose 10 µM, read-out: Growth % of the Most Sensitive Cell Lines): -99%
GI50 [2]: 860 nM
CC50 [2, 23]: 2860 nM
IC (TGI) [3]: 2850 nM
GI50 ([3]; OVCAR-4): 860 nM
CC50 ([3]; OVCAR-4, read-out: LC50 (the source's name)): 25000 nM
GI50 ([4]; BT-549): 2560 nM
IC (TGI) ([4]; BT-549, 48 h): 9230 nM
CC50 ([4]; BT-549, read-out: LC50 (the source's name)): 23300 nM
IC (TGI) [5]: 5160 nM
GI50 [5]: 1840 nM
CC50 [5]: 27000 nM
IC (TGI) [6]: 1800 nM
GI50 [6]: 900 nM
CC50 [6]: 3630 nM
GI50 ([21]; K562): 1220 nM
IC (TGI) ([21]; K562, 48 h, read-out: TGI): 3630 nM
CC50 ([21]; K562, read-out: LC50): > 50000 nM
GI50 [7]: 1040 nM
IC (TGI) [7]: 3460 nM
CC50 ([7]; HOP-92, read-out: LC50): 23100 nM
GI50 [8]: 1040 nM
IC (TGI) [8]: 2170 nM
CC50 ([8]; NCI-H522, read-out: LC50): 4540 nM
GI50 [9]: 810 nM
IC (TGI) ([9]; HCT-116, 48 h): 1540 nM
CC50 [9]: 2930 nM
GI50 [10]: 840 nM
IC (TGI) [10]: 1760 nM
CC50 ([10]; HCT-15, read-out: LC50): 3690 nM
GI50 [11]: 990 nM
IC (TGI) ([11]; HT-29, 48 h, read-out: TGI): 2040 nM
CC50 ([11]; HT-29, read-out: LC50): 4220 nM
GI50 [12]: 910 nM
IC (TGI) [12]: 1650 nM
CC50 ([12]; KM12, read-out: LC50): 3000 nM
GI50 [13]: 850 nM
IC (TGI) [13]: 1580 nM
CC50 ([13]; SF-295, read-out: LC50): 2940 nM
GI50 [14]: 1070 nM
IC (TGI) [14]: 2210 nM
CC50 ([14]; UACC-257, read-out: LC50): 4680 nM
GI50 [15]: 890 nM
IC (TGI) [15]: 1670 nM
CC50 [15]: 3140 nM
GI50 [16]: 990 nM
IC (TGI) ([16]; 48 h, read-out: TGI): 2170 nM
CC50 ([16]; read-out: LC50): 4770 nM
GI50 [17]: 3830 nM
IC (TGI) [17]: 11200 nM
CC50 [17]: 27700 nM
GI50 ([22]; RXF 393): 830 nM
IC (TGI) ([22]; RXF 393, 48 h, read-out: TGI): 1590 nM
CC50 ([22]; RXF 393, read-out: LC50): 3070 nM
GI50 [18]: 820 nM
IC (TGI) ([18]; UO-31, 48 h, read-out: TGI): 2240 nM
CC50 ([18]; UO-31, read-out: LC50): 9640 nM
GI50 [19]: 1210 nM
IC (TGI) [19]: 3010 nM
CC50 ([19]; DU-145, read-out: LC50): 11300 nM
GI50 [20]: 1510 nM
IC (TGI) [20]: 5150 nM
CC50 ([20]; read-out: LC50): > 50000 nM

Reference: PMC7914897, “Cytotoxic Potential of a-Azepano- and 3-Amino-3,4-SeCo-Triterpenoids” (International Journal of Molecular Sciences, 2021)
